Patent US20220143222A1, “SUBCUTANEOUS AND INTRAMUSCULAR ADMINISTRATION OF PYRAZINE COMPOUNDS” (MediBeacon Inc., priority 2020, published 2022)

Columns and labels:
[1] = MB-102 pig plasma concentration after IV dosing; assay type: in vivo; settings: pig 48019, IV, 3.2 mpk
Source text: (§1) Juvenile Yorkshire pigs weighing approximately 25 kg were anesthetized, their body temperature stabilized, and an IV port surgically placed. A region approximately half-way along the line between the hip and knee joint was selected as the injection site and prepared by cleaning the skin and removing any exposed hair by shaving the selected area at least twice. Similarly, the site where two Quantum Leap fluorescent sensors (disclosed in U.S. Pat. No. 10,548,521) were to be positioned (chest) was prepared by washing and shaving. After the skin was dry the sensors were attached with commercially available skin adhesive and background skin auto-fluorescence measurements were recorded. After about 20 minutes of background fluorescence collection the subject animal was dosed either intravenously (animal 48019) or subcutaneously (animals 52771, 53701 09802, or 1539) or intramuscularly (09801) with PBS-1× formulated MB-102 at 3.2 mg/kg. Injection of the appropriate volume took place over about a minute. […] At this point glomerular elimination of MB-102 by the kidneys led to a decrease of fluorescence signal over time. Blood samples (1.5 mL) were taken immediately prior to the introduction of MB-102 (0 minutes) and at 15 minute intervals throughout the procedure. Blood was collected in BD vacutainer K2EDTA tubes, spun to plasma and stored at −80° C. until analyzed. Subsequently, the processed plasma samples were thawed, diluted with PBS-1× and analyzed by HPLC or UPLC and the concentration of MB-102 determined using standard analytical techniques. Further details for each animal are provided in the examples that follow.
Subject pig, 48019, the control animal, was prepared as in Example 6 and dosed IV using 8.2 mL of 11.8 mg/mL MB-102 in PBS-1× (bolus over about 2 min).

[2] = MB-102 pig plasma concentration after intramuscular dosing; assay type: in vivo; settings: pig 09801, IM, 3.2 mpk
Source text: as §1
Experimental animal Yorkshire pig, 09801, was subject to Intramuscular (IM) administration of MB-102 using substantially the same procedure as Example 8, but substituting a 2 mL syringe equipped with a single 13 mm×27 g needle. […] Blood sampling and processing was as described in Example 8 and the results (Table 1) are plotted in FIG. 6.

[3] = Storage of concentrated MB-102 salt solution at 4° C. (precipitation); assay type: physicochemical; settings: sodium salt, 300 mg per mL water (w/v), 4° C. overnight
Procedure: MB-102 (0.300 g, 0.81 mmol), was placed in a vial (4.0 mL). Water was added (0.8 mL, D.I.) and the mixture sonicated for a brief period of time. To the mixture was added aqueous 6.25 N NaOH (2 equivalents, 1.62 mmol, 0.24 mL, added in portions; 0.020 mL×12 to effect solution) with stirring and brief periods of sonication. […] The final concentration was 300 mg (2R,2′R)-2,2′-((3,6-diaminopyrazine-2,5-dicarbonyl)bis(azanediyl))bis(3-hydroxypropanoic acid), MB-102 per mL water (w/v).
MB-102 (0.30 g, 0.81 mmol) was weighed into a 5 mL v-vial equipped with a Teflon-covered magnetic spin vane. Choline hydroxide in water (Aldrich, 0.43 g of 46 wt %, 1.62 mmol) was added portion-wise with stirring until a solution was obtained. The total weight of the solution was 0.73 g or 64.2 wt % MB-102 di-choline salt (MW: 578.6).

Nc1nc(C(=O)N[C@H](CO)C(=O)O)c(N)nc1C(=O)N[C@H](CO)C(=O)O [MB-102, 3,6-diamino-2,5-bis{N-[(1R)-1-carboxy-2-hydroxyethyl]carbamoyl}pyrazine] showed a concentration at 15 min ([1]; Yorkshire, plasma, 3.2 mg/kg, 15 min, read-out: MB-102 Pig Plasma Conc.) of 13000 ng/mL, a concentration at 30 min ([1]; Yorkshire, plasma, 3.2 mg/kg, 30 min, read-out: MB-102 Pig Plasma Conc.) of 9200 ng/mL and a concentration at 45 min ([1]; Yorkshire, plasma, 3.2 mg/kg, 45 min, read-out: MB-102 Pig Plasma Conc.) of 7830 ng/mL. The concentration at 60 min ([1]; Yorkshire, plasma, 3.2 mg/kg, 60 min, read-out: MB-102 Pig Plasma Conc.) was 5880 ng/mL, the concentration at 75 min ([1]; Yorkshire, plasma, 3.2 mg/kg, 75 min, read-out: MB-102 Pig Plasma Conc.) was 5430 ng/mL and the concentration at 90 min ([1]; Yorkshire, plasma, 3.2 mg/kg, 90 min, read-out: MB-102 Pig Plasma Conc.) was 4680 ng/mL. It also gave a concentration at 105 min ([1]; Yorkshire, plasma, 3.2 mg/kg, 105 min, read-out: MB-102 Pig Plasma Conc.) of 4000 ng/mL, a concentration at 120 min ([1]; Yorkshire, plasma, 3.2 mg/kg, 120 min, read-out: MB-102 Pig Plasma Conc.) of 3340 ng/mL and a concentration at 135 min ([1]; Yorkshire, plasma, 3.2 mg/kg, 135 min, read-out: MB-102 Pig Plasma Conc.) of 3250 ng/mL. It also gave a concentration at 150 min ([1]; Yorkshire, plasma, 3.2 mg/kg, 150 min, read-out: MB-102 Pig Plasma Conc.) of 2700 ng/mL, a concentration at 165 min ([1]; Yorkshire, plasma, 3.2 mg/kg, 165 min, read-out: MB-102 Pig Plasma Conc.) of 2410 ng/mL and a concentration at 180 min ([1]; Yorkshire, plasma, 3.2 mg/kg, 180 min, read-out: MB-102 Pig Plasma Conc.) of 2200 ng/mL. For the same compound, the concentration at 195 min ([1]; Yorkshire, plasma, 3.2 mg/kg, 195 min, read-out: MB-102 Pig Plasma Conc.) was 2000 ng/mL, the concentration at 210 min ([1]; Yorkshire, plasma, 3.2 mg/kg, 210 min, read-out: MB-102 Pig Plasma Conc.) was 1910 ng/mL and the concentration at 225 min ([1]; Yorkshire, plasma, 3.2 mg/kg, 225 min, read-out: MB-102 Pig Plasma Conc.) was 1690 ng/mL. It also gave a concentration at 240 min ([1]; Yorkshire, plasma, 3.2 mg/kg, 240 min, read-out: MB-102 Pig Plasma Conc.) of 1510 ng/mL, a concentration at 255 min ([1]; Yorkshire, plasma, 3.2 mg/kg, 255 min, read-out: MB-102 Pig Plasma Conc.) of 1400 ng/mL and a concentration at 270 min ([1]; Yorkshire, plasma, 3.2 mg/kg, 270 min, read-out: MB-102 Pig Plasma Conc.) of 1320 ng/mL. The concentration at 285 min ([1]; Yorkshire, plasma, 3.2 mg/kg, 285 min, read-out: MB-102 Pig Plasma Conc.) was 1140 ng/mL, the concentration at 300 min ([1]; Yorkshire, plasma, 3.2 mg/kg, 300 min, read-out: MB-102 Pig Plasma Conc.) was 1110 ng/mL and the concentration at 315 min ([1]; Yorkshire, plasma, 3.2 mg/kg, 315 min, read-out: MB-102 Pig Plasma Conc.) was 1000 ng/mL. The concentration at 330 min ([1]; Yorkshire, plasma, 3.2 mg/kg, 330 min, read-out: MB-102 Pig Plasma Conc.) was 917 ng/mL, the concentration at 345 min ([1]; Yorkshire, plasma, 3.2 mg/kg, 345 min, read-out: MB-102 Pig Plasma Conc.) was 859 ng/mL and the concentration at 360 min ([1]; Yorkshire, plasma, 3.2 mg/kg, 360 min, read-out: MB-102 Pig Plasma Conc.) was 819 ng/mL. The “SUM (plasma conc. over time)” value ([1]; 15-360 min) was 1,188,637 ng/mL*min, the concentration at 15 min ([2]; Yorkshire, plasma, intramuscular, 3.2 mg/kg, 15 min, read-out: MB-102 Pig Plasma Conc.) was 10000 ng/mL and the concentration at 30 min ([2]; Yorkshire, plasma, intramuscular, 3.2 mg/kg, 30 min, read-out: MB-102 Pig Plasma Conc.) was 8130 ng/mL. It also gave a concentration at 45 min ([2]; Yorkshire, plasma, intramuscular, 3.2 mg/kg, 45 min, read-out: MB-102 Pig Plasma Conc.) of 6240 ng/mL, a concentration at 60 min ([2]; Yorkshire, plasma, intramuscular, 3.2 mg/kg, 60 min, read-out: MB-102 Pig Plasma Conc.) of 5030 ng/mL and a concentration at 75 min ([2]; Yorkshire, plasma, intramuscular, 3.2 mg/kg, 75 min, read-out: MB-102 Pig Plasma Conc.) of 3920 ng/mL. The concentration at 90 min ([2]; Yorkshire, plasma, intramuscular, 3.2 mg/kg, 90 min, read-out: MB-102 Pig Plasma Conc.) was 3370 ng/mL, the concentration at 105 min ([2]; Yorkshire, plasma, intramuscular, 3.2 mg/kg, 105 min, read-out: MB-102 Pig Plasma Conc.) was 2720 ng/mL and the concentration at 120 min ([2]; Yorkshire, plasma, intramuscular, 3.2 mg/kg, 120 min, read-out: MB-102 Pig Plasma Conc.) was 2130 ng/mL. It also gave a concentration at 135 min ([2]; Yorkshire, plasma, intramuscular, 3.2 mg/kg, 135 min, read-out: MB-102 Pig Plasma Conc.) of 1800 ng/mL, a concentration at 150 min ([2]; Yorkshire, plasma, intramuscular, 3.2 mg/kg, 150 min, read-out: MB-102 Pig Plasma Conc.) of 1510 ng/mL and a concentration at 165 min ([2]; Yorkshire, plasma, intramuscular, 3.2 mg/kg, 165 min, read-out: MB-102 Pig Plasma Conc.) of 1340 ng/mL. The concentration at 180 min ([2]; Yorkshire, plasma, intramuscular, 3.2 mg/kg, 180 min, read-out: MB-102 Pig Plasma Conc.) was 1110 ng/mL, the concentration at 195 min ([2]; Yorkshire, plasma, intramuscular, 3.2 mg/kg, 195 min, read-out: MB-102 Pig Plasma Conc.) was 946 ng/mL and the concentration at 210 min ([2]; Yorkshire, plasma, intramuscular, 3.2 mg/kg, 210 min, read-out: MB-102 Pig Plasma Conc.) was 841 ng/mL. It also gave a concentration at 225 min ([2]; Yorkshire, plasma, intramuscular, 3.2 mg/kg, 225 min, read-out: MB-102 Pig Plasma Conc.) of 686 ng/mL, a concentration at 240 min ([2]; Yorkshire, plasma, intramuscular, 3.2 mg/kg, 240 min, read-out: MB-102 Pig Plasma Conc.) of 578 ng/mL and a concentration at 255 min ([2]; Yorkshire, plasma, intramuscular, 3.2 mg/kg, 255 min, read-out: MB-102 Pig Plasma Conc.) of 520 ng/mL. It also gave a concentration at 270 min ([2]; Yorkshire, plasma, intramuscular, 3.2 mg/kg, 270 min, read-out: MB-102 Pig Plasma Conc.) of 434 ng/mL, a concentration at 285 min ([2]; Yorkshire, plasma, intramuscular, 3.2 mg/kg, 285 min, read-out: MB-102 Pig Plasma Conc.) of 373 ng/mL and a concentration at 300 min ([2]; Yorkshire, plasma, intramuscular, 3.2 mg/kg, 300 min, read-out: MB-102 Pig Plasma Conc.) of 333 ng/mL. It also gave a concentration at 315 min ([2]; Yorkshire, plasma, intramuscular, 3.2 mg/kg, 315 min, read-out: MB-102 Pig Plasma Conc.) of 298 ng/mL, a concentration at 330 min ([2]; Yorkshire, plasma, intramuscular, 3.2 mg/kg, 330 min, read-out: MB-102 Pig Plasma Conc.) of 261 ng/mL and a concentration at 345 min ([2]; Yorkshire, plasma, intramuscular, 3.2 mg/kg, 345 min, read-out: MB-102 Pig Plasma Conc.) of 222 ng/mL. For the same compound, the concentration at 360 min ([2]; Yorkshire, plasma, intramuscular, 3.2 mg/kg, 360 min, read-out: MB-102 Pig Plasma Conc.) was 203 ng/mL, the “SUM (plasma conc. over time)” value ([2]; 15-360 min) was 794,162 ng/mL*min and the “precipitate formation on storage” value [3] was “no precipitate formation”.
